From publication PMC12610713, “Inhibition Profiling of Rhodiola crenulata on Lactate Dehydrogenase Isoenzymes” (Molecules, 2025) come the findings set out here.

For series [1], the target named is T1, recombinant LDHA (Homo sapiens, UniProt P00338). The series can be described thus: Michaelis-Menten kinetics of recombinant LDHA. Particulars: pyruvate varied with NADH 0.6 mM, NADH varied with sodium pyruvate 1 mM.
Method: (§3) Based on comprehensive literature evidence [41, 61, 62, 63, 64] and systematic experimental validation, we established optimized enzymatic assay platforms for LDHA and LDHB inhibitor screening. […] Reactions were conducted in 0.1 M Tris-HCl buffer (with 10% glycerol, pH 7.4) at 30 °C, and NADH oxidation was kinetically monitored at 340 nm for 20 min. […] Kinetic parameters (Km and Vmax) were derived by nonlinear regression analysis of the Michaelis-Menten equation using GraphPad Prism 8.0 (GraphPad Software, San Diego, CA, USA).
In series [2] the target is T2, recombinant LDHB (Homo sapiens, UniProt P07195).
T2 construct: His-tag; made in house; host or cells: E. coli BL21(DE3)
T2 sequence (P07195 whole entry): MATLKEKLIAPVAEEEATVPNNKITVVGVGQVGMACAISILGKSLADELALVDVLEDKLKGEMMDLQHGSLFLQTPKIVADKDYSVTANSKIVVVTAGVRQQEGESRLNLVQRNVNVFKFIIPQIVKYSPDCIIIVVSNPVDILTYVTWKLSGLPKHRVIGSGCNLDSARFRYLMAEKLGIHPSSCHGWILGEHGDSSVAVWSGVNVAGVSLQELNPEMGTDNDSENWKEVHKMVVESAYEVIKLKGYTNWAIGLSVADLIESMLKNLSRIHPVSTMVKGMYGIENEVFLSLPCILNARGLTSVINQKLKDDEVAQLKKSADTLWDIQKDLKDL
The series can be described thus: Michaelis-Menten kinetics of recombinant LDHB. Type of series: biochemical. The conditions noted are these: pyruvate varied with NADH 0.6 mM; NADH varied with sodium pyruvate 1 mM. The procedure:
(§1) Based on comprehensive literature evidence and systematic experimental validation, we established optimized enzymatic assay platforms for LDHA and LDHB inhibitor screening. In the platforms, 60 µL of purified enzyme solution (1.95 nM final concentration) was loaded into 96-well plates, followed by 140 µL of a 1:1 (v/v) pyruvate/NADH substrate mixture. Reactions were conducted in 0.1 M Tris-HCl buffer (with 10% glycerol, pH 7.4) at 30 °C, and NADH oxidation was kinetically monitored at 340 nm for 20 min. To determine the kinetic parameters, the optimization protocol for LDHA was performed as follows: with NADH fixed at 0.6 mM while varying sodium pyruvate (0.02–2.5 mM) to determine the optimal concentration; and with sodium pyruvate fixed at 1 mM while varying NADH (0.01–0.7 mM) to determine the optimal concentration. Similarly, the optimization protocol for LDHB was performed as follows: with NADH fixed at 0.6 mM while varying sodium pyruvate (0.01–1.05 mM) to determine the optimal concentration; and with sodium pyruvate fixed at 1 mM while varying NADH (0.01–0.7 mM) to determine the optimal concentration. The initial reaction rates were derived by analyzing the progress curves with OriginPro 2023 (OriginLab Co., Northampton, MA, USA). Kinetic parameters (Km and Vmax) were derived by nonlinear regression analysis of the Michaelis-Menten equation using GraphPad Prism 8.0 (GraphPad Software, San Diego, CA, USA).

Series [3] has as its target T2, recombinant LDHB. The series can be described thus: LDHB enzyme activity inhibition assay (NADH oxidation, 340 nm). The series is classed as biochemical. Particulars: for IC50: 0.08 mM sodium pyruvate, 0.04 mM NADH, 10 min pre-incubation, 30 °C, read-out: IC50 against LDHB; for inhibition rate against LDHB (selection for dose-response): components assayed at 10 µM and 40 µM. The procedure:
The Z’ factor (Z’ = 1 − [3 × (σₚ + σₙ)]/|μₚ − μₙ|) was used to evaluate the robustness of the screening platform, where σ represents the standard deviation, μ represents the mean value, p denotes enzyme activity, and n denotes the background signal. […] (2) The enzyme-inhibitor mixture was pre-incubated for 10 min at room temperature. […] (4) At 30 °C, the enzymatic reaction was monitored at 340 nm for 20 min.
For the enzyme activity assay, the concentrations of the R. crenulata extract were 20 µg/mL, while the 19 isolated components was assayed at 10 µM and 40 µM.

For a further series, the system named is HepG2 cells. The series can be described thus: Cell viability assay (CCK-8) HepG2. Type of series: cell-based. Particulars: Homo sapiens, 72 h incubation, read-out: IC50 against HepG2. The procedure: (§2) The MDA-MB-231 and HepG2 cell lines, representing triple-negative breast cancer and hepatocellular carcinoma, were selected to evaluate the inhibitory effects of LDHA and LDHB inhibitors. […] Following 72 h of incubation, 10 µL of CCK-8 reagent was added to each well, and cells were further incubated for 1–4 h. Absorbance was measured at 450 nm with a reference wavelength of 600 nm for background correction. Data from three independent experiments (each with three technical replicates) were normalized to the vehicle control (100% viability) and medium-only wells (0% viability).

The next series concerns MDA-MB-231 cells. As to the kind of experiment: Cell viability assay (CCK-8) MDA-MB-231. Type of series: cell-based. The conditions noted are these: Homo sapiens, 72 h incubation, read-out: IC50 against MDA-MB-231. On the procedure:
as §2

The target of series [4] is T1, recombinant LDHA. As to the kind of experiment: LDHA enzyme activity inhibition assay (NADH oxidation, 340 nm). The series is classed as biochemical. On the set-up: His-tag; made in house; host or cells: E. coli BL21(DE3). Particulars: for inhibition rate against LDHA (selection for dose-response) / LDH inhibitory activity, LDHA compared with LDHB (inhibition rates): components assayed at 10 µM and 40 µM; for LDH inhibitory activity, LDHA compared with LDHB (inhibition rates): Figure 5.

Series [5] concerns CC(=O)C(=O)O. The series can be described thus: purified protein, by the assay type. The conditions noted are these: other: pyruvate varied with NADH 0.6 mM; NADH varied with sodium pyruvate 1 mM; pH 7.4; 30.0 °C.
Method: as §3
The test system of series [6] is T3, CC(=O)C(=O)O.
T3 construct: His-tag; made in house; host or cells: E. coli BL21(DE3)
The series can be described thus: Michaelis-Menten kinetics of recombinant LDHB. The series is classed as biochemical, homo sapiens. Particulars: other: pyruvate varied with NADH 0.6 mM; NADH varied with sodium pyruvate 1 mM; pH 7.4; 30.0 °C. The procedure: as §1

Setting [7] is: 0.16 mM sodium pyruvate, 0.04 mM NADH, 10 min pre-incubation, 30 °C, read-out: IC50 against LDHA.

Where two headings read alike, the source gives them in different places.

Usually Km stands for the concentration of substrate that gives half-maximal velocity. In general, IC50 refers to the concentration needed to halve the response being measured.

In the case of `NC(=O)C1=CN([C@@H]2O[C@H](COP(=O)([O-])OP(=O)([O-])OC[C@H]3O[C@@H](n4cnc5c(N)ncnc54)[C@H](O)[C@@H]3O)[C@@H](O)[C@H]2O)C=CC1.[Na+].[Na+]` [NADH, β-Nicotinamide adenine dinucleotide disodium salt], the “Vmax of LDHA” value at recombinant LDHA [1] stood at 15.37 ± 0.57 µM/min. Also, at recombinant LDHA [1] (read-out: Km of LDHA), the Km turned out to be 39 ± 6 µM. For the same compound, on recombinant LDHB [2], the Km amounted to 40 ± 5 µM and the “Vmax of LDHB” value was found to be 10.05 ± 0.33 µM/min.

For `O=c1c(O)c(-c2ccc(O)cc2)oc2cc(O)cc(O)c12` [Kaempferol, kaempferol], the IC50 at recombinant LDHB [3] amounted to 8.69 ± 0.85 µM; in the series on HepG2 cells it was 50 ± 2.5 µM; in the series on MDA-MB-231 cells, 37.5 ± 2 µM; on recombinant LDHA [4] (setting [7]), 0.7 ± 0.13 µM. Further, the “inhibition rate against LDHB (selection for dose-response)” value at recombinant LDHB [3] is reported as “exceeding 80%”. In addition, the “potency in inhibiting LDHA relative to LDHB (IC50 comparison)” value at recombinant LDHA [4] (LDHA vs LDHB) is recorded as “more than 10 fold”. Besides, on recombinant LDHA [4], the “inhibition rate against LDHA (selection for dose-response)” value is given as “exceeding 80%”. In addition, the “LDH inhibitory activity, LDHA compared with LDHB (inhibition rates)” value on recombinant LDHA [4] is “stronger inhibition against LDHA than LDHB”.

With `O=c1oc2c(O)c(O)cc3c(=O)oc4c(O)c(O)cc1c4c23` [Ellagic acid], the IC50 with HepG2 cells was determined as 59 ± 3 µM; in the series with MDA-MB-231 cells, 54.3 ± 2.5 µM. Moreover, the “LDH inhibitory activity, LDHA compared with LDHB (inhibition rates)” value at recombinant LDHA [4] was “stronger inhibition against LDHA than LDHB”.

Turning to `O=C(O[C@@H]1Cc2c(O)cc(O)cc2O[C@@H]1c1ccc(O)c(O)c1)c1cc(O)c(O)c(O)c1` [Epicatechin gallate, epicatechin gallate], the 50% inhibitory concentration (IC50) with HepG2 cells amounted to 33.8 ± 1 µM; in the series on MDA-MB-231 cells, 23.5 ± 1 µM; on recombinant LDHA [4] (setting [7]) it was 2.27 ± 0.23 µM. Besides, the “inhibition rate against LDHA (selection for dose-response)” value at recombinant LDHA [4] was “exceeding 80%”. Besides, the “LDH inhibitory activity, LDHA compared with LDHB (inhibition rates)” value on recombinant LDHA [4] is given as “stronger inhibition against LDHA than LDHB”.

As for `Cc1cc2c(C(C)C)c(O)c(O)c(C=O)c2c(O)c1-c1c(C)cc2c(C(C)C)c(O)c(O)c(C=O)c2c1O` [gossypol, reference compound], on recombinant LDHA [4], the IC50 was 0.19 ± 0.05 µM.

Turning to `O=c1c(O)c(-c2ccc(O)c(O)c2)oc2cc(O)cc(O)c12` [Quercetin], the IC50 on recombinant LDHB [3] is 0.87 ± 0.07 µM; in the series with HepG2 cells it was 54.8 ± 3 µM; in the series on MDA-MB-231 cells, 27.3 ± 1.5 µM; at recombinant LDHA [4] (setting [7]), 0.27 ± 0.02 µM. Moreover, on recombinant LDHB [3], the “inhibition rate against LDHB (selection for dose-response)” value is given as “exceeding 80%”. In addition, on recombinant LDHA [4], the “inhibition rate against LDHA (selection for dose-response)” value is on record as “exceeding 80%”. Moreover, the “LDH inhibitory activity, LDHA compared with LDHB (inhibition rates)” value on recombinant LDHA [4] was “stronger inhibition against LDHA than LDHB”.

Consider recombinant LDHA (Homo sapiens), for which, in the series on CC(=O)C(=O)O [5], the Km came out at 160 ± 27 µM.

As to recombinant LDHB (Homo sapiens), in the series with CC(=O)C(=O)O [6], the Km amounted to 74 ± 19 µM.

As for `O=c1cc(-c2ccc(O)c(O)c2)oc2cc(O)cc(O)c12` [Luteolin, luteolin], on recombinant LDHB [3], the IC50 was 2.71 ± 0.39 µM and the “inhibition rate against LDHB (selection for dose-response)” value is “exceeding 80%”. Also, the IC50 with HepG2 cells amounted to 74 ± 3.5 µM. In addition, the IC50 with MDA-MB-231 cells came to 25.1 ± 1 µM. Also, on recombinant LDHA [4], the “inhibition rate against LDHA (selection for dose-response)” value was “exceeding 80%” and the “LDH inhibitory activity, LDHA compared with LDHB (inhibition rates)” value was “stronger inhibition against LDHA than LDHB”.
